We go through six compounds from US20230150951A1, “2,5- OR 2,6-DISUBSTITUTED HYDROQUINONE DERIVATIVES WITH AT LEAST ONE CARBOXY, SULFO OR AMIDO GROUP USEFUL AS MEDICAMENTS” (OM PHARMA SA, priority 2020, published 2023).

Data set [1] in a line: Prodrug stability in mouse plasma. Type of data set: in vitro ADME.
Data set [2] is described as follows: Prodrug stability in human plasma. In kind it is in vitro ADME.
In the next data set the target is T1, FGF-1 (Homo sapiens, UniProt P05230).
T1 construct: purchased Peprotech 100-17A
T1 sequence (P05230 whole entry): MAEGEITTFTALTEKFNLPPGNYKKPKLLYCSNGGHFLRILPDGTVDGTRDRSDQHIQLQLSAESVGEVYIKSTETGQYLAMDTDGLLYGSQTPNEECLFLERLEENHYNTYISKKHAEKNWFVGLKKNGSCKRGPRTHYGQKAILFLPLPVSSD
The data set can be described thus: FGF-1 induced sprouting of HUVEC, spheroid-based cellular angiogenesis assay. In kind it is cell-based. Particulars: FGF-1 25 ng/mL preincubated with compound, 24 h. A digest of the protocol:
(§1)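 Compound (final 100 down to 1.56×10^−6 M) was mixed with growth factor (final 25 ng/mL) for 30 min at 37°C, then added onto collagen-embedded 400-cell HUVEC spheroids.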

In a further data set the target is T2, FGF-2 (Homo sapiens, UniProt P09038).
T2 construct: purchased Peprotech 100-18C
T2 sequence (P09038 134-288): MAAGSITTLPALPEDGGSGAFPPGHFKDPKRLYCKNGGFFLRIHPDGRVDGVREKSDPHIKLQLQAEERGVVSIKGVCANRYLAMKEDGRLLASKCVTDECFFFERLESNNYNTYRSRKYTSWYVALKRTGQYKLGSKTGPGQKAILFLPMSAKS
As to the kind of experiment: FGF-2 induced sprouting of HUVEC, spheroid-based cellular angiogenesis assay. In kind it is cell-based. As to conditions: FGF-2 25 ng/mL preincubated with compound, 24 h. A digest of the protocol: as §1

A further data set has as its target T3, VEGF-A (Homo sapiens, UniProt P15692).
T3 construct: purchased ProQinase GmbH
T3 sequence (P15692 27-191 isoform P15692-4): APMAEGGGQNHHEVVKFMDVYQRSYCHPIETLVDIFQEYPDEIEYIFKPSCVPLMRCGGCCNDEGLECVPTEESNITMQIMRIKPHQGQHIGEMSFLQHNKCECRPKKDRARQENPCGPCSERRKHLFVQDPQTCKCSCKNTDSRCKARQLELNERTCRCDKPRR
As to the kind of experiment: VEGF-A induced sprouting of HUVEC, spheroid-based cellular angiogenesis assay. Type of data set: cell-based. Particulars: VEGF-A 25 ng/mL preincubated with compound, 24 h, read-out: VEGF-A1 IC50. A digest of the protocol:
as §1

A further data set concerns the target T4, VEGFR-2 (Homo sapiens, UniProt P35968).
T4 construct: endogenous in cells; host or cells: primary HUVEC
The data set can be described thus: VEGF-165 induced phosphorylation of VEGF-Receptor on HUVEC. In kind it is cell-based. As to conditions: HUVEC preincubated 60 min, VEGF165 25 ng/mL 2 min; read-out: VEGFR-Phosphorylation inhibition IC50.

Data set [3] has as its system Human neutrophils. The data set can be described thus: Inhibition of ROS production in human neutrophils (isoluminol chemiluminescence). Type of data set: cell-based. Particulars: Homo sapiens, Neutrophil, fMLP+TNF-α stimulated PMN. A digest of the protocol:
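Extracellular ROS measured as isoluminol-amplified chemiluminescence following 1 μM fMLP activation on fibrinogen-coated plates, readings every 25 sec over 250 sec minus HBSS/isoluminol background. Beforehand, cells were treated with compounds at 0.1, 0.3, 1, 3 or 10 μM (30 min, 37° C) and TNF-α (20 ng/ml, 10 min); duplicate or triplicate.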

Data set [4] deals with Human neutrophils. The data set can be described thus: Neutrophil adhesion under static conditions. In kind it is cell-based. As to conditions: fMLP-stimulated adhesion to fibrinogen; method: 40 μM and 80 μM, concentration of the value not stated. A digest of the protocol:
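Donor buffy-coat neutrophils (3×10^6/ml, PBS with Ca/Mg, 10% FCS, pH 7.2) preincubated 30 min at 37° C with 40 μM or 80 μM compound, then stimulated 1 min at 37° C with 1 nM fMLP on fibrinogen-coated glass. Adherent cells fixed and counted by computer; mean ± SD, unpaired t-test.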

Data set [5] concerns ARPE-19 cells. The data set can be described thus: Outer blood retinal barrier: ARPE-19 monolayer permeability to FITC-dextran. In kind it is cell-based, human. An excerpt: (§2) The mechanisms of actions involved in the anti-permeability effect of the tested treatments were explored by assessing permeability to fluorescent dextran and proinflammatory cytokines production using their mRNA expression levels by RT-PCR.
(§3) Outer Blood Retinal Barrier conditions: human retinal pigment epithelial cells (RPE) cultures ARPE-19, a spontaneously immortalised human RPE cell line were obtained from American Type Culture Collection (Manassas, Va., USA). ARPE-19 cells and they were cultured in euglycaemic conditions (D-glucose (D-Glc), 5.5 mmol/L) and hyperglycaemic conditions (D-glucose, 25 mmol/L) for 18 days at 37° C. under 5% (vol./vol.) CO2 in medium (DMEM/F12) supplemented with 10% (vol./vol.) FBS (Hyclone; Thermo Fisher Scientific, UT, USA) and 1% (vol./vol.) penicillin/streptomycin (Hyclone; Thermo Fisher Scientific). ARPE-19 cells from passage 20 were used and the medium changed every 3-4 days. For permeability studies, ARPE-19 cells were seeded at 400,000 cells/ml (80,000 RPE cells/well) in 0.33 cm^2 HTS-Transwells (Costar; Corning, N.Y., USA). For real-time PCR, western blot analysis and immunofluorescence cells are seeded at 20,000 cells/ml.
(§4) Experimental conditions and treatments: apart from the euglycemic condition, eighteen different conditions were tested in cells cultured under 25 mmol/L D-glucose:
Condition 2) Cells are treated with diabetic milieu 25 mM D-Glucose+vehicle (days 15, 16 and 17 at one application/day) in order to evaluate their effect in preventing the cell damage provoked by the diabetic milieu.
Condition 9) Cells were treated with 25 mM D-Glucose and bevacizumab (0.2 mg/ml) for 72 h (days 15, 16 and 17 at one application/day) to evaluate their potential cytotoxic effects.
Condition 10)=Diabetic milieu; cells were treated with 25 mM D-Glucose+[…] (10 ng/ml)+TNF-α (25 ng/ml)+VEGF (25 ng/ml), for 48 h (days 16 and 17 at one application/day) in order to provoke the disruption of the monolayer.
Condition 17) Cells are treated with diabetic milieu (25 mM D-Glucose+IL-1β (10 ng/ml)+TNF-α (25 ng/ml)+VEGF (25 ng/ml))+bevacizumab (0.2 mg/mL) (days 15, 16 and 17 at one application/day) in order to evaluate their effect in preventing the cell damage provoked by the diabetic milieu.
Measurement of ARPE-19 permeability: The permeability of RPE cells was determined at 18 days by measuring the apical-to basolateral movements of FITC-dextran (40 kDa) (Sigma, St Louis, […]., USA) following a procedure previously reported by Villarroel et al. Exp Eye Res, 2009, 89, 913-920.

The test system of data set [6] is human retinal endothelial cells (HRECs). The data set can be described thus: Inner blood retinal barrier: HREC monolayer permeability to FITC-dextran. Type of data set: cell-based.
Source text: as §2
Inner Blood Retinal Barrier conditions: primary human retinal endothelial cells (HRECs) were obtained from a vial of cryopreserved cells purchased from Innoprot (Vizcay, Spain). These cells were isolated from human retinal tissue of cadaveric eyes digested with 0.1 mg/mL collagenase type I at 37° C. for 1 hour. Then, endothelial cells were finally selected with CD31 antibody-coated magnetic beads (DynaBeads; Dynal, Oslo, Norway). HRECs were thawed in the laboratory and cultured in endothelial basal medium (EBM) containing, 5.5 mM D-glucose, 5% FBS (Fetal Bovine Serum), 100 U/mL penicillin, 100 μg/mL streptomycin, and ECG (Endothelial Cell Growth Supplement) supplement (Innoprot, Vizcay, Spain). Human fibronectin (MerckMillipore, Madrid, Spain) at 5 μg/mL was used for cell attachment. Cells at passages 2-3 will be used for the experiments. For experimentation, HRECs were grown to confluence and then cell culture media was changed to medium supplemented with 1% FBS for 24 h and then exposed to different treatments.
Conditions treatments: The same conditions specified for the experiment in ARPE-19 cells were used.
Measurement of HREC permeability: Permeability in HREC monolayers were obtained on permeable supports at 12×10^5 cells/well (24 wells, PCF filters, Merk Millipore). Inserts were incubated for 48 hours at 37° C. in 5% CO2-air to form the monolayer. At the end, medium was serum depleted 24 h before to proceed with the treatments. The lower chamber was filled with 600 μL of complete EBM medium and the upper chamber with 100 μL of cell suspension in serum depleted (1%).
To detect changes in the permeability, 100 μg/ml of fluorescent FITC-DEXTRAN (Sigma, Madrid, Spain), was added to the upper side of the insert. Aliquots of 200 μL from the basal compartment was read in a SpectraMax Gemini (Molecular Devices, Sunnyvale, Calif.) at a wavelength of excitation/emission 485/528 nm every 30 min. Finally, the concentration of dextran was determined by extrapolation of the fluorescence reads in a standard curve. Each condition was tested in triplicate.

Data set [7] relates to ARPE-19 cells. As to the kind of experiment: ROS and cytokine/VEGF mRNA production by ARPE-19 monolayer cells in non-diabetic and diabetic milieu. Type of data set: cell-based, human. As to conditions: ARPE19 monolayer, 0.2 mg/mL; for ROS: ROS % to 25 mM D-Glucose; for IL-1β R.Q. mRNA / IL-6 R.Q. mRNA / IL-18 R.Q. mRNA / TNFα R.Q. mRNA / VEGF R.Q. mRNA: relative change vs 25 mM D-Gluc. As for the experimental part: as §3, §4
• Proinflammatory cytokines were evaluated in ARPE-19 cells by RT-PCR and mRNA for IL-6, TNF-α, IL-1β, IL-18, VEGF, IL-10, FGF were measured using the double delta CT method 2-ΔΔCT with Cts values for the gene of interest and the endogenous human B-actin to obtain ΔCT; mRNA values were expressed as relative change with respect to the condition 25 mM D-Gluc. (ref: Livak K J, Analysis of Relative Gene Expression Data Using Real-Time Quantitative PCR and the 2-ΔΔCT Method, Methods, 2001, 25(4), 402-408, doi 10.1006/meth.2001.1262) • ROS production was evaluated using Cell Biolabs' OxiSelect™ Intracellular ROS Assay (Green Fluorescence) (Bionova, Madrid, Spain). The assay employs the cell-permeable fluorogenic probe 2′, 7′-Dichlorodihydrofluorescin diacetate (DCFH-DA), oxidized to highly fluorescent 2′, 7′-Dichlorodihydrofluorescein (DCF) by cellular ROS. • Endothelin-1, PDGF and VCAM-1 expression was analyzed in HREC monolayers by immunohistochemical analysis and by RT-PCR. • TJ expression (ZO) is analyzed in ARPE-19 and HREC monolayers by immunohistochemical analysis.

Where [8] appears, read: diabetic milieu (25 mM D-Gluc + VEGF, TNF-α, IL-1β).

T4 sequence (P35968 20-1356): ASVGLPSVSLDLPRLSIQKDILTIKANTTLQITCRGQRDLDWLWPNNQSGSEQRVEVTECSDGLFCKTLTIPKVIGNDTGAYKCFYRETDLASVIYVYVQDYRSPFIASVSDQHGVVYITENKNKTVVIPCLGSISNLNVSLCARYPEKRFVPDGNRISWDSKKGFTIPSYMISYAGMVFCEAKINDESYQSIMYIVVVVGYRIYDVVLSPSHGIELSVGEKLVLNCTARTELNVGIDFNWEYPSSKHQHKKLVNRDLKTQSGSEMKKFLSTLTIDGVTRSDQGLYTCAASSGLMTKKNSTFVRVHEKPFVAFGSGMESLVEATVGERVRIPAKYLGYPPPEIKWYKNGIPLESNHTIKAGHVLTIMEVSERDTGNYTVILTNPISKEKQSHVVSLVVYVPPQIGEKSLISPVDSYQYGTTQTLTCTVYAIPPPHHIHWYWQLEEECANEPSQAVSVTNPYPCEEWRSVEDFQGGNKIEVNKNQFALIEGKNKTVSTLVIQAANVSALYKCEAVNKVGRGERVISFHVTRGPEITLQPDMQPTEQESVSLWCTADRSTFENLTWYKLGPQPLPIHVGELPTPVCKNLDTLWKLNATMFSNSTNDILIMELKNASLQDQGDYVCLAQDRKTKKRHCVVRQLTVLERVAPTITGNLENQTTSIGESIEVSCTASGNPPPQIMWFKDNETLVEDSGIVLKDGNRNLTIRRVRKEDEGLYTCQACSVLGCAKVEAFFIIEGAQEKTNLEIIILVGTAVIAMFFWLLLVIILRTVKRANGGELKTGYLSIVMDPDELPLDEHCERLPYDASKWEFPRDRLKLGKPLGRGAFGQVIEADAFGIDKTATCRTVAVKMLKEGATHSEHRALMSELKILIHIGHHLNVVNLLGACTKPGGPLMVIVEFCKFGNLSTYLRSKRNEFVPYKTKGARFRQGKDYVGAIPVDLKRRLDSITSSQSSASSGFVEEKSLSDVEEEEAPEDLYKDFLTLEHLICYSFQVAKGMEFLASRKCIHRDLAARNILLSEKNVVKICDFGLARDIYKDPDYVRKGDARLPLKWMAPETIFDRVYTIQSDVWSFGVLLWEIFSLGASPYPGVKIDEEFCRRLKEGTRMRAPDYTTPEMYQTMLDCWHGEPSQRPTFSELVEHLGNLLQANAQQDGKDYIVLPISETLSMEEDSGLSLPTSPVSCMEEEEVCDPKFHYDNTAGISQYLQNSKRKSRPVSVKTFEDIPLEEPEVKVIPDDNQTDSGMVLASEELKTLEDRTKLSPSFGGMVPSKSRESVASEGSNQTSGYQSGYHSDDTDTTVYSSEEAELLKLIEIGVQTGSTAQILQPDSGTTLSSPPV

As for `O=C(O)c1cc(O)cc(CS(=O)(=O)Cc2cc(O)cc(C(=O)OCCN3CCOCC3)c2O)c1O` [IVc-059a-mpe1, 2,5-Dihydroxy-3-[[2,5-hydroxy-3-(2-morpholinoethoxycarbonyl)phenyl]methylsulfonyl-methyl]benzoic acid], in data set [1], the “Stability in mouse plasma (in words)” value was “stable up to 60 min”.
Take `O=C(OCCN1CCOCC1)c1cc(O)cc(CS(=O)(=O)Cc2cc(O)cc(C(=O)OCCN3CCOCC3)c2O)c1O` [IVc-059a-mpe2, 2,5-Dihydroxy-3-[[2,5-hydroxy-3-(2-morpholinoethoxycarbonyl)phenyl]methylsulfonyl-methyl]benzoic acid 2-morpholinoethyl ester]: the “Stability in mouse plasma (in words)” value in [1] was “stable up to 60 min”. Further, the “T1/2 (human plasma)” value in data set [2] was over 3 h.
As to `CC(OC(=O)c1cc(O)cc(CS(=O)(=O)Cc2cc(O)cc(C(=O)O)c2O)c1O)OC(=O)C(C)(C)C` (stereo not shown) [IVc-059a-pive1, 3-[[3-[1-(2,2-Dimethylpropanoyloxy)ethoxycarbonyl]-2,5-dihydroxy-phenyl]methylsulfonyl-methyl]-2,5-dihydroxy-benzoic acid], the “Stability in mouse plasma (in words)” value in [1] was “Hydrolyzed Rapidly”.
What is called IC50 is the midpoint of a concentration-inhibition curve. In general, inhibition refers to the percentage by which the read-out fell short of the control. `O=C(O)c1cc(O)c(C(=O)NC(Cc2ccc(O)c(O)c2)C(=O)O)cc1O` (stereo not shown) [Ia-035a-3, 4-(1-Carboxy-2-(3,4-dihydroxyphenyl)ethylaminocarbonyl)-2,5-dihydroxybenzoic acid]: the half-maximal inhibitory concentration (IC50) is 34 µM on FGF-1; 207 µM at FGF-2; 198 µM on VEGF-A; 10 µM on VEGFR-2; 0.66 µM in the data set on Human neutrophils [3]. The compound also gave an inhibition at 0.3 µM with Human neutrophils [3] of 79.6%. Further, in the data set with Human neutrophils [4], the Neutrophil adhesion inhibition came out at 22%.
Regarding `O=C(O)c1cc(O)c(C(=O)NCc2ccccc2C(=O)O)cc1O` [Ia-053a, 4-(2-Carboxyphenylmethylaminocarbonyl)-2,5-dihydroxybenzoic acid], the IC50 at FGF-1 is at least 150 µM; on FGF-2, 124 µM; at VEGF-A, 210 µM; at VEGFR-2, at least 100 µM; in the data set with Human neutrophils [3] it was 2.5 µM. Also, in the data set on Human neutrophils [3], at 0.3 µM the inhibition was 52.9%. The Neutrophil adhesion inhibition in the data set on Human neutrophils [4] is recorded as 18.67%.
With “bevacizumab: comparator in ARPE-19 and HREC permeability experiments [reference compound]”, the “% permeability ARPE19” value in the data set with ARPE-19 cells [5] (No 9: 25 mM D-Gluc + 0.2 mg/mL) turned out to be 109.5 ± 22.9%. Moreover, in the data set with ARPE-19 cells [5] (No 17: 25 mM D-Gluc + 0.2 mg/mL + VEGF, TNF-α, (diabetic milieu)), the “% permeability ARPE19” value is recorded as 120.7 ± 30.1%. The “% permeability HREC” value in data set [6] (No 9: 25 mM D-Gluc + 0.2 mg/mL) is listed as 127.1 ± 26.2%. For the same compound, the “% permeability HREC” value in [6] (No 17: 25 mM D-Gluc + 0.2 mg/mL + VEGF, TNF-α, IL-β (diabetic milieu)) worked out at 129.0 ± 35.3%. For the same compound, in the data set on ARPE-19 cells [7] (25 mM D-Gluc), the ROS worked out at 110 ± 54%, the “IL-1β R.Q. mRNA” value was 1.46 ± 0.72 R.Q, the “IL-6 R.Q. mRNA” value was determined as 0.64 ± 0.34 R.Q and the “IL-18 R.Q. mRNA” value came to 0.09 ± 0.01 R.Q. Also, in the data set on ARPE-19 cells [7] (25 mM D-Gluc), the “TNFα R.Q. mRNA” value was found to be 0.46 ± 0.63 R.Q and the “VEGF R.Q. mRNA” value came out at 1.68 ± 0.83 R.Q. Besides, in the data set on ARPE-19 cells [7] (setting [8]), the ROS is 111 ± 50%, the “IL-1β R.Q. mRNA” value came out at 31.22 ± 12.65 R.Q, the “IL-6 R.Q. mRNA” value was found to be 32.35 ± 13.48 R.Q and the “IL-18 R.Q. mRNA” value turned out to be 0.53 ± 0.04 R.Q. In the data set on ARPE-19 cells [7] (setting [8]), the “TNFα R.Q. mRNA” value was 1.37 ± 0.27 R.Q and the “VEGF R.Q. mRNA” value worked out at 3.88 ± 0.68 R.Q.
